Results: patent US20240269128A1, “COMPOUNDS FOR TREATING OR PREVENTING ALZHEIMER'S DISEASE” (THE UNITED STATES OF AMERICA, as represented by the …, priority 2021, published 2024)

How the values were obtained:
[1] = target: T1, STAT3 (Homo sapiens, UniProt P40763); test: Western blot of p-STAT3 in tau phosphorylation assay; assay type: cell-based
T1 construct: endogenous in cells; host or cells: HMC3 (ATCC CRL-3304), 1321N1 (Sigma-Aldrich), SK-N-BE(2)-M17 (ATCC CRL-2267)
Description: Western blot analyses: Samples for western blot analyses were prepared from 3 assays which provided evidence of HCQ-associated rescue (i.e., Ab1-42 clearance, tau phosphorylation, and LPS-induced neuroinflammation). Samples were prepared identically as described above in section: Effect of HCQ on AD-related phenotypes in cell culture, and scaled up to 24-well format to allow for adequate sample volume. After HCQ treatment, cells were washed once with PBS and harvested in 50 μl 50 mM HEPES+2% SDS lysis buffer. The extracts were then boiled at 95° C. for 5 mins. Analytic methods were identical to those described above in Example 4.
Statistical analyses: Statistical analysis was performed using STATA 16.1. Group differences were evaluated using two-sample t-tests (parametric) to calculate differences in p-STAT3 levels between HCQ treated and control samples. We additionally used the Wilcoxon rank-sum test (non-parametric) to confirm that results were robust to distributional assumptions. Significant differences were indicated as p<0.05.

[2] = system: Primary hippocampal neurons; test: Neurite outgrowth and neurogenesis; assay type: cell-based, mouse; conditions: HCQ 25, 2.5 or 0.25 μM
Description: Neurite outgrowth and neurogenesis: Primary hippocampal neurons were prepared from E18.5 timed pregnant C57BL/6JRccHsd mice as previously described. Cells were seeded in poly-D-lysine pre-coated 96-well plates at a density of 2.6×10^4 cells/well in (Neurobasal, 2% B-27, 0.5 mM glutamine, 25 μM glutamate, 1% Penicillin-Streptomycin). Directly on DIV1 HCQ (TargetMol, T0951) at 25 μM, 2.5 μM or 0.25 μM concentrations or vehicle control was applied. On DIV2 10 μM Bromodeoxyuridine (BrdU; B5002 Sigma Aldrich) was added and cells were fixed after additional 24 h. Cells were permeabilized with 0.1% Triton-X and incubated with primary Beta Tubulin Isotype III (T8660, Sigma Aldrich) and BrdU antibodies (MAS250c, AHrlan-Sera Lab) overnight at 4° C. Afterwards cells were washed two times with PBS and incubated with fluorescently labeled secondary antibodies and DAPI for 1.5 hour at RT in the darkness. Cells were rinsed three times with PBS imaged with the Cytation 5 Multimode reader (BioTek) at 10× magnification (6 images per well). BrdU positive cells were counted as marker for neurogenesis and Beta Tubulin Isotype III signal was used for macro-based quantification of neurite outgrowth.

[3] = system: Primary hippocampal neurons; test: Aβ toxicity assay; assay type: cell-based, mouse; conditions: HCQ 25, 2.5 or 0.25 μM
Description: Aβ toxicity: Primary hippocampal neurons were prepared from E18.5 timed pregnant C57BL/6JRccHsd mice as previously described. Cells were seeded in poly-D-lysine pre-coated 96-well plates at a density of 4×10^4 cells/well and cultivated until DIV10 (Neurobasal, 2% B-27, 0.5 mM glutamine, 25 μM glutamate, 1% Penicillin-Streptomycin). On DIV10 pre-aggregated Aβ1-42 (Bachem 4061966, final concentration 10 μM, 48 h at 4° C.) was added to the cells in the presence or absence of Hydroxychloroquine sulfate (TargetMol, T0951) at 25 μM, 2.5 μM or 0.25 μM concentrations. On DIV16 cells were subject to MTT assay to determine cell viability.

[4] = target: STAT3 (Mus musculus, UniProt P42227); test: Western blot of hippocampal STAT3 and p-STAT3 after STET; parameters: hippocampal homogenate samples across four groups; from tissue; host or cells: acute hippocampal slices from WT and APP/PS1 (APPSwe/PS1dE9) mice
Chain of STAT3 (Mus musculus, UniProt P42227) (P42227 whole entry): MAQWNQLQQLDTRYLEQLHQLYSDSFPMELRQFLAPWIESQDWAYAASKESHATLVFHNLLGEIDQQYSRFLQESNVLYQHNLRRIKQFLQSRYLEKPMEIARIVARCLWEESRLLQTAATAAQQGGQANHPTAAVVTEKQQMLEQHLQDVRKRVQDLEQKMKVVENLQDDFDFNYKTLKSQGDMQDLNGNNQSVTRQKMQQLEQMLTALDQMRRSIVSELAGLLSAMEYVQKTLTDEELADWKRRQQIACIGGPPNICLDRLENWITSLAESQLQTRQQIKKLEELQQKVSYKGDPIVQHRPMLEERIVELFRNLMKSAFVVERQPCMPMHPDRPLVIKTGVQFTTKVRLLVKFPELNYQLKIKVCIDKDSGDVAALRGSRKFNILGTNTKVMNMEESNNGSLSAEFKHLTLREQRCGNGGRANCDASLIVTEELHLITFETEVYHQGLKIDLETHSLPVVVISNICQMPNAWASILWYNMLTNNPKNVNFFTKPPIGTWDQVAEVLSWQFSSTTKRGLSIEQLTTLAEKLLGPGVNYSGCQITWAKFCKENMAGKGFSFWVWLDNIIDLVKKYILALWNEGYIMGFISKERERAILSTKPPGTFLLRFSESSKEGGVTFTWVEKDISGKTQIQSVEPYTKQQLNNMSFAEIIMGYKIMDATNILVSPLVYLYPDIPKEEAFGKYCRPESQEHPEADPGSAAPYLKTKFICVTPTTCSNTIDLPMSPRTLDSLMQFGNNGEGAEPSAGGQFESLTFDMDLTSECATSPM
Description: To test if the rescue of impaired late-LTP by HCQ may be through inactivation of STAT3, levels of total STAT3 and phosphorylated STAT3 (p-STAT3; Tyr705) were examined to determine whether they were reduced by HCQ treatment. Specifically, differences in STAT3 and pSTAT3 levels were tested in hippocampal homogenate samples across four groups: WT, APP/PS1, WT+50 μM HCQ, and APP/PS1+50 μM HCQ mice (5-months old). All hippocampal slices were incubated in the interphase chamber and HCQ was applied 30 minutes before and after STET. In each group, hippocampal slices were collected one hour after STET.

T1 sequence (P40763 whole entry): as the sequence (P42227 whole entry) above, with D760E counted along it

Compound: CCN(CCO)CCCC(C)Nc1ccnc2cc(Cl)ccc12 (stereo not shown) [HCQ, hydroxychloroquine]
- p-STAT3 (Tyr705) ([1]; 25 μM and 2.5 μM, relative to VC): lowered
- p-STAT3 (Ser727) ([1]; 25 μM, 2.5 μM and 0.25 μM): lowered
- neurite outgrowth and neurogenesis [2]: No effects
- toxicity due to exogenous Aβ [3]: no effects
- hippocampal p-STAT3 (Tyr705) ([4]; APP/PS1+50 μM HCQ vs untreated APP/PS1): significantly lower
- hippocampal total STAT3 ([4]; APP/PS1 vs APP/PS1+50 μM HCQ): no significant difference
- hippocampal total STAT3 and p-STAT3 (Tyr705) ([4]; WT vs WT+50 μM HCQ): similar
